Test results as given in ChEMBL document CHEMBL4627344, “Synthesis, biological evaluation and virtual screening of some acridone derivatives as potential anticancer agents” (2020).

How the values were obtained:
Assay type in all cases: functional
MOLT-4 = experiment: Antiproliferative activity against human MOLT4 cells assessed as inhibition of cell growth at 10 uM measured after 48 hrs by SRB assay relative to control; conditions: MOLT-4, 48 h, read-out: GI
SR = experiment: Antiproliferative activity against human SR cells assessed as inhibition of cell growth at 10 uM measured after 48 hrs by SRB assay relative to control; conditions: read-out: GI
NCI-H226 = experiment: Antiproliferative activity against human NCI-H226 cells assessed as inhibition of cell growth at 10 uM measured after 48 hrs by SRB assay relative to control; conditions: NCI-H226, 48 h, read-out: GI
NCI-H460 = experiment: Antiproliferative activity against human NCI-H460 cells assessed as inhibition of cell growth at 10 uM measured after 48 hrs by SRB assay relative to control; conditions: NCI-H460, 48 h, read-out: GI
COLO 205 = experiment: Antiproliferative activity against human COLO205 cells assessed as inhibition of cell growth at 10 uM measured after 48 hrs by SRB assay relative to control; conditions: COLO 205, 48 h, read-out: GI
HCC 2998 = experiment: Antiproliferative activity against human HCC2998 cells assessed as inhibition of cell growth at 10 uM measured after 48 hrs by SRB assay relative to control; conditions: HCC 2998, 48 h, read-out: GI
KM12 = experiment: Antiproliferative activity against human KM12 cells assessed as inhibition of cell growth at 10 uM measured after 48 hrs by SRB assay relative to control; conditions: KM12, 48 h, read-out: GI
SNB-19 [1] = experiment: Antiproliferative activity against human SNB19 cells assessed as inhibition of cell growth at 10 uM measured after 48 hrs by SRB assay relative to control; conditions: SNB-19, 48 h, read-out: GI
U-251 = experiment: Antiproliferative activity against human U251 cells assessed as inhibition of cell growth at 10 uM measured after 48 hrs by SRB assay relative to control; conditions: U-251, 48 h, read-out: GI
MDA-MB-435 = experiment: Antiproliferative activity against human MDA-MB-435 cells assessed as inhibition of cell growth at 10 uM measured after 48 hrs by SRB assay relative to control; conditions: MDA-MB-435, 48 h, read-out: GI
SK-MEL-5 [2] = experiment: Antiproliferative activity against human SK-MEL-5 cells assessed as inhibition of cell growth at 10 uM measured after 48 hrs by SRB assay relative to control; conditions: SK-MEL-5, 48 h, read-out: GI
OVCAR-5 = experiment: Antiproliferative activity against human OVCAR5 cells assessed as inhibition of cell growth at 10 uM measured after 48 hrs by SRB assay relative to control; conditions: OVCAR-5, 48 h, read-out: GI
RXF 393 [3] = experiment: Antiproliferative activity against human RXF393 cells assessed as inhibition of cell growth at 10 uM measured after 48 hrs by SRB assay relative to control; conditions: RXF 393, 48 h, read-out: GI
DU-145 [4] = experiment: Antiproliferative activity against human DU145 cells assessed as inhibition of cell growth at 10 uM measured after 48 hrs by SRB assay relative to control; conditions: DU-145, 48 h, read-out: GI
BT-549 = experiment: Antiproliferative activity against human BT549 cells assessed as inhibition of cell growth at 10 uM measured after 48 hrs by SRB assay relative to control; conditions: BT-549, 48 h, read-out: GI
MDA-MB-468 [5] = experiment: Antiproliferative activity against human MDA-MB-468 cells assessed as inhibition of cell growth at 10 uM measured after 48 hrs by SRB assay relative to control; conditions: MDA-MB-468, 48 h, read-out: GI
NCI-H23 = experiment: Antiproliferative activity against human NCI-H23 cells assessed as inhibition of cell growth measured after 48 hrs by SRB assay; conditions: NCI-H23, 48 h
NCI-H522 = experiment: Antiproliferative activity against human NCI-H522 cells assessed as inhibition of cell growth measured after 48 hrs by SRB assay; conditions: NCI-H522, 48 h
HCT-15 = experiment: Antiproliferative activity against human HCT15 cells assessed as inhibition of cell growth measured after 48 hrs by SRB assay; conditions: HCT-15, 48 h
SF-295 = experiment: Antiproliferative activity against human SF295 cells assessed as inhibition of cell growth measured after 48 hrs by SRB assay; conditions: SF-295, 48 h
SNB-19 [6] = experiment: Antiproliferative activity against human SNB19 cells assessed as inhibition of cell growth measured after 48 hrs by SRB assay; conditions: SNB-19, 48 h
SK-MEL-2 = experiment: Antiproliferative activity against human SK-MEL-2 cells assessed as inhibition of cell growth measured after 48 hrs by SRB assay; conditions: SK-MEL-2, 48 h
SK-MEL-5 [7] = experiment: Antiproliferative activity against human SK-MEL-5 cells assessed as inhibition of cell growth measured after 48 hrs by SRB assay; conditions: SK-MEL-5, 48 h
OVCAR-8 = experiment: Antiproliferative activity against human OVCAR8 cells assessed as inhibition of cell growth measured after 48 hrs by SRB assay; conditions: OVCAR-8, 48 h
NCI/ADR-RES = experiment: Antiproliferative activity against human NCI/ADR-RES cells assessed as inhibition of cell growth measured after 48 hrs by SRB assay
A498 = experiment: Antiproliferative activity against human A498 cells assessed as inhibition of cell growth measured after 48 hrs by SRB assay; conditions: A498, 48 h
RXF 393 [8] = experiment: Antiproliferative activity against human RXF393 cells assessed as inhibition of cell growth measured after 48 hrs by SRB assay; conditions: RXF 393, 48 h
SN12C = experiment: Antiproliferative activity against human SN12C cells assessed as inhibition of cell growth measured after 48 hrs by SRB assay
UO-31 = experiment: Antiproliferative activity against human UO31 cells assessed as inhibition of cell growth measured after 48 hrs by SRB assay; conditions: UO-31, 48 h
DU-145 [9] = experiment: Antiproliferative activity against human DU145 cells assessed as inhibition of cell growth measured after 48 hrs by SRB assay; conditions: DU-145, 48 h
MCF7 = experiment: Antiproliferative activity against human MCF7 cells assessed as inhibition of cell growth measured after 48 hrs by SRB assay; conditions: MCF7, 48 h
Hs-578T = experiment: Antiproliferative activity against human Hs 578T cells assessed as inhibition of cell growth measured after 48 hrs by SRB assay
T47D = experiment: Antiproliferative activity against human T47D cells assessed as inhibition of cell growth measured after 48 hrs by SRB assay
SK-MEL-28 = experiment: Antiproliferative activity against human SK-MEL-28 cells assessed as inhibition of cell growth measured after 48 hrs by SRB assay; conditions: SK-MEL-28, 48 h
MDA-MB-468 [10] = experiment: Antiproliferative activity against human MDA-MB-468 cells assessed as inhibition of cell growth measured after 48 hrs by SRB assay; conditions: MDA-MB-468, 48 h

Compound | inhibition of growth at 10 µM (MOLT-4) [%] | inhibition of growth at 10 µM (SR) [%] | inhibition of growth at 10 µM (NCI-H226) [%] | inhibition of growth at 10 µM (NCI-H460) [%] | inhibition of growth at 10 µM (COLO 205) [%] | inhibition of growth at 10 µM (HCC 2998) [%] | inhibition of growth at 10 µM (KM12) [%] | inhibition of growth at 10 µM (SNB-19 [1]) [%] | inhibition of growth at 10 µM (U-251) [%] | inhibition of growth at 10 µM (MDA-MB-435) [%] | inhibition of growth at 10 µM (SK-MEL-5 [2]) [%] | inhibition of growth at 10 µM (OVCAR-5) [%] | inhibition of growth at 10 µM (RXF 393 [3]) [%] | inhibition of growth at 10 µM (DU-145 [4]) [%] | inhibition of growth at 10 µM (BT-549) [%] | inhibition of growth at 10 µM (MDA-MB-468 [5]) [%] | GI50 (NCI-H23) [µM] | GI50 (NCI-H522) [µM] | GI50 (HCT-15) [µM] | GI50 (SF-295) [µM] | further results
COc1ccc2nc3c(cc2c1)C(=O)CC(c1ccccc1)C3 (configuration not stated) | 82.2 | 82.3 | 73.5 | 91.2 | 98.1 | 8.74 | 89.2 | 65.7 | 55 | 168 | 69.8 | 38.8 | 103 | 98.9 | 48.3 | 31.7 | 6.18 | 0.471 | 2.68 | 0.634 | GI50 (SNB-19 [6]): 2.62 µM; GI50 (SK-MEL-2): 0.777 µM; GI50 (SK-MEL-5 [7]): 0.54 µM; GI50 (OVCAR-8): 1.06 µM; GI50 (NCI/ADR-RES): 0.408 µM; GI50 (A498): 0.346 µM; GI50 (RXF 393 [8]): 0.44 µM; GI50 (SN12C): 0.639 µM; GI50 (UO-31): 0.543 µM; GI50 (DU-145 [9]): 0.593 µM; GI50 (MCF7): 3.49 µM; GI50 (Hs-578T): 1 µM; GI50 (T47D): 3.65 µM
O=C1CC(c2ccccc2)Cc2nc3ccc(Br)cc3cc21 (configuration not stated) | 89.5 | 86.9 | 75.9 | 95.4 | 136 | 73 | 91.1 | 72.6 | 81.9 | 140 | 97.9 | 72.8 | 71.6 | 103 | 93.5 | 99.7 | 0.616 | 0.236 | 0.528 | 0.206 | GI50 (SNB-19 [6]): 0.434 µM; GI50 (SK-MEL-2): 0.238 µM; GI50 (SK-MEL-28): 0.954 µM; GI50 (SK-MEL-5 [7]): 0.288 µM; GI50 (OVCAR-8): 0.461 µM; GI50 (NCI/ADR-RES): 0.0669 µM; GI50 (A498): 0.0745 µM; GI50 (RXF 393 [8]): 0.208 µM; GI50 (SN12C): 0.526 µM; GI50 (UO-31): 0.64 µM; GI50 (DU-145 [9]): 0.274 µM; GI50 (MCF7): 2.76 µM; GI50 (Hs-578T): 0.411 µM; GI50 (MDA-MB-468 [10]): 2.84 µM
